Experimental data from ChEMBL document CHEMBL3817815, “Impact of Binding Site Comparisons on Medicinal Chemistry and Rational Molecular Design” (J Med Chem, 2016).
Converted amounts (≈) assume the structure as drawn.

Tests used:
[1] = target: T1, Prostaglandin G/H synthase 1 (Homo sapiens, UniProt P23219); test: Inhibition of human recombinant COX1 expressed in Sf9 cell microsomes assessed as reduction in conversion of arachidonic acid to PGE2 at 250 uM incubated for 5 mins by HTRF assay
[2] = target: T2, Replicase polyprotein 1ab (Severe acute respiratory syndrome-related coronavirus, UniProt P0C6X7); test: Inhibition of SARS coronavirus main proteinase 3C-like protease
Acetylcholinesterase = Acetylcholinesterase (Homo sapiens, UniProt P22303); test: Inhibition of AChE (unknown origin)
[3] = test system: Mycobacterium tuberculosis; test: Antimicrobial activity against Mycobacterium tuberculosis str. Erdman assessed as complete inhibition of growth incubated for 14 days by microplate assay; assay type: functional; conditions: Erdman = ATCC 35801, 336 h
[4] = test system: Mycobacterium tuberculosis; test: Inhibition of Mycobacterium tuberculosis InhA at 80 uM using DD-CoA and NADH
[5] = target: T1, Prostaglandin G/H synthase 1; test: Inhibition of human recombinant COX1 expressed in Sf9 cell microsomes assessed as reduction in conversion of arachidonic acid to PGE2 incubated for 5 mins by HTRF assay
[6] = target: T2, Replicase polyprotein 1ab; test: Binding affinity to SARS coronavirus main proteinase 3C-like protease
Beta-secretase 1 = Beta-secretase 1 (Homo sapiens, UniProt P56817); test: Inhibition of BACE1 (unknown origin)
Sequence of Beta-secretase 1 (P56817 whole entry): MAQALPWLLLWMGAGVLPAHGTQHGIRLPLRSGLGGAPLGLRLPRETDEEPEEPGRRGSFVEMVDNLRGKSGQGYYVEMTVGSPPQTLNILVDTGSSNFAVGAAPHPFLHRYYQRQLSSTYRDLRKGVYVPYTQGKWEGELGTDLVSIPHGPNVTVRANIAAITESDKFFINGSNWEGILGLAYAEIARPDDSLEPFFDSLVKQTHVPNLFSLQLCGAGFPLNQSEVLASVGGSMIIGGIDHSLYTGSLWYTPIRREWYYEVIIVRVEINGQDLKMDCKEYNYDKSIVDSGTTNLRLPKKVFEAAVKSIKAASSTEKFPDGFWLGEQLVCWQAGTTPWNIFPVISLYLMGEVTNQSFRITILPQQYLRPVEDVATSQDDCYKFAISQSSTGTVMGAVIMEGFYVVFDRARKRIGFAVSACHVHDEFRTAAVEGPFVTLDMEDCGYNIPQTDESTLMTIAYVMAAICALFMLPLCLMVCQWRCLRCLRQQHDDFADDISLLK

T1 sequence (P23219 whole entry): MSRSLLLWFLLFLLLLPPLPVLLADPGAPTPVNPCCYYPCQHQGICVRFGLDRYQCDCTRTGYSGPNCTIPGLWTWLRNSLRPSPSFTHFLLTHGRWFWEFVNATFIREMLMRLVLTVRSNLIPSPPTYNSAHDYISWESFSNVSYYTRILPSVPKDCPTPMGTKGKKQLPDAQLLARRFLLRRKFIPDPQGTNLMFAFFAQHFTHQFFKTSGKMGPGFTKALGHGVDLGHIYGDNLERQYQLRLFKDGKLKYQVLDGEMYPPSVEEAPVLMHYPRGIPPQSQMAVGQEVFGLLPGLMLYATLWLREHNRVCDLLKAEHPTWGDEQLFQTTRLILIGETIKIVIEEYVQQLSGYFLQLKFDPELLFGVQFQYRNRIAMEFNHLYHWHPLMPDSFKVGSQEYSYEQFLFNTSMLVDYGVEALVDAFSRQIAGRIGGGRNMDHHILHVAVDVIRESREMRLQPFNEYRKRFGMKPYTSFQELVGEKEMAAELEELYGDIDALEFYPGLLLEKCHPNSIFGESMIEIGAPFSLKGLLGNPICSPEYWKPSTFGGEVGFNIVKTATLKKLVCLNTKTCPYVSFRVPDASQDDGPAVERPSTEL
Sequence of Acetylcholinesterase (P22303 whole entry): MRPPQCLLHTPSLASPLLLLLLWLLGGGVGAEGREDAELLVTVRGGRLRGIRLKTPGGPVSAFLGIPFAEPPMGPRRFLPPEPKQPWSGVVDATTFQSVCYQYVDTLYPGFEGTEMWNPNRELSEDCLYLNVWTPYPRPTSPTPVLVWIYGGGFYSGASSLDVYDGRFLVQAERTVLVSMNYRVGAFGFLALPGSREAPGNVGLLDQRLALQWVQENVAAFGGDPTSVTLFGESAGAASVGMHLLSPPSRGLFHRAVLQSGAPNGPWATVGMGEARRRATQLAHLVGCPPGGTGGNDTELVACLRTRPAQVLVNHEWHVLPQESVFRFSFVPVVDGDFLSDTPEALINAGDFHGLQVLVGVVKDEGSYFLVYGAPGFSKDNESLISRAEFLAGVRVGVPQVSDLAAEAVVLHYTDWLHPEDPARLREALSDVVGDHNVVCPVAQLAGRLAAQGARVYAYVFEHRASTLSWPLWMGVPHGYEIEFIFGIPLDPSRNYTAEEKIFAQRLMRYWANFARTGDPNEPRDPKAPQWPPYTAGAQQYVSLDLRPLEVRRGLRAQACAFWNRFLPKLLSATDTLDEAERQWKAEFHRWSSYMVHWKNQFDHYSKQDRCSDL

| SMILES | IC50 [2] | Ki [6] | other results |
| --- | --- | --- | --- |
| Cc1ccc(C)c(OCCCC(C)(C)C(=O)O)c1 |  |  | inhibition [1]: 18% |
| CC(=O)N[C@@H](CC(=O)O)C(=O)N[C@@H](CO)C(=O)N[C@H](C(=O)N[C@@H](CC(C)C)C(=O)N[C@H](C=O)CCC(N)=O)[C@@H](C)O | 10 µM |  |  |
| Cc1ccc(Nc2nccc(N(C)c3ccc4c(C)n(C)nc4c3)n2)cc1S(N)(=O)=O [PAZOPANIB] |  |  | IC50 (Acetylcholinesterase): 0.93 µM |
| CCN(CC)C(=O)/C(C#N)=C/c1cc(O)c(O)c([N+](=O)[O-])c1 [ENTACAPONE] |  |  | MIC99 [3]: 260 µM (≈ 79.4 µg/mL); inhibition [4]: 47% |
| O=C(O)c1ccccc1O [SALICYLIC ACID] |  |  | IC50 [5]: 500 µM |
| CC(C)(Oc1ccc(Cl)cc1)C(=O)O |  |  | inhibition [1]: 14% |
| CC(=O)N[C@@H](CC(N)=O)C(=O)N[C@@H](CO)C(=O)N[C@@H](Cc1ccccc1)C(=O)N[C@@H](CO)C(=O)N[C@@H](CCC(N)=O)C(=O)O |  | 72 µM |  |
| CC(=O)N[C@@H](CC(N)=O)C(=O)N[C@@H](CO)C(=O)N[C@H](C(=O)N[C@@H](CC(=O)O)C(=O)N[C@H](C=O)CCC(N)=O)[C@@H](C)O | 20 µM |  |  |
| CC(=O)N[C@@H](Cc1cnc[nH]1)C(=O)N[C@@H](CO)C(=O)N[C@H](C(=O)N[C@@H](CC(C)C)C(=O)N[C@H](C=O)CCC(N)=O)[C@@H](C)O | > 50 µM |  |  |
| CC(=O)N[C@@H](CCC(=O)O)C(=O)N[C@@H](CO)C(=O)N[C@H](C(=O)N[C@@H](CC(C)C)C(=O)N[C@H](C=O)CCC(N)=O)[C@@H](C)O | 7.5 µM | 8 µM |  |
| CC(=O)N[C@@H](CC(=O)O)C(=O)N[C@@H](CO)C(=O)N[C@@H](Cc1ccccc1)C(=O)N[C@@H](CC(=O)O)C(=O)N[C@@H](CCC(N)=O)C(=O)O |  | 41 µM |  |
| CC(=O)N[C@@H](CC(N)=O)C(=O)N[C@@H](CO)C(=O)N[C@H](C(=O)N[C@@H](CO)C(=O)N[C@H](C=O)CCC(N)=O)[C@@H](C)O | 7.5 µM | 40 µM |  |
| COc1cc2ncnc(Nc3ccc(F)c(Cl)c3)c2cc1OCCCN1CCOCC1 [GEFITINIB] |  |  | IC50 (Beta-secretase 1): 20 µM |
